The values that follow come from BindingDB's records for doi:10.7270/Q2KH0KWR (Burnham Center For Chemical Genomics, 2012).

Each structure is given as a SMILES string.

This assay has as its target T1, Tyrosine-protein phosphatase non-receptor type 5 (Homo sapiens, UniProt P54829).
T1 sequence (P54829 whole entry): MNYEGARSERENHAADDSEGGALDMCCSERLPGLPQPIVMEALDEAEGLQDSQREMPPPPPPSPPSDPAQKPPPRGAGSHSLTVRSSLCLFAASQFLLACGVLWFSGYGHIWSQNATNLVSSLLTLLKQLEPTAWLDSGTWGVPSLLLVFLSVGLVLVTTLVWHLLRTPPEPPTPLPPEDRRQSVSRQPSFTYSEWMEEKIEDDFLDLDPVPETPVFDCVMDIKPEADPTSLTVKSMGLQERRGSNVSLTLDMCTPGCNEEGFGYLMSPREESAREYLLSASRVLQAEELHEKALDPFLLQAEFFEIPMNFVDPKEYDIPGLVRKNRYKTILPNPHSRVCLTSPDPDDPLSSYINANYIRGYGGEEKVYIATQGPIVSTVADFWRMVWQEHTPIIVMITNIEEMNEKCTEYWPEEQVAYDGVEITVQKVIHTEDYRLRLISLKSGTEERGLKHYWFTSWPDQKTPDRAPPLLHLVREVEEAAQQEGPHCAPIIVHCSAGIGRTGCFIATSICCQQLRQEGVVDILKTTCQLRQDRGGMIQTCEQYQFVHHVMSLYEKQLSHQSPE
The experiment in a line: STEP phosphatase inhibitor potency, dose response, orthogonal assay for STEP inhibitor project, biochemical, colorimetric absorbance (AID 624207).

By IC50 is commonly meant the concentration that gives 50% inhibition. Lower therefore signals higher potency. In turn, `CC1=C(C(=O)OC(C)C)C(c2ccc(Cl)cc2)n2c(s/c(=C\c3ccc(OCC(=O)O)cc3)c2=O)=N1` (stereo unspecified) [{4-[(5-(4-chlorophenyl)-6-(isopropoxycarbonyl)-7-methyl-3-oxo-5H-[1,3]thiazolo[3,2-a]pyrimidin-2(3H)-ylidene)methyl]phenoxy}acetic acid] yielded an IC50 of 5.83 µM.
